From patent publication US20250115598A1 (Anaxis Pharma Pty Ltd, priority 2021, published 2025)

How the values were obtained:
endogenous MLKL in MDF = endogenous MLKL in MDF (Mus musculus (Mouse), UniProt Q9D2Y4); test: Degradation assay: endogenous MLKL in MDF (western blot); settings: MDF cells, 24 h incubation with compound, MLKL adjusted for loading with GAPDH, normalized to DMSO only control, read-out: Degradation of endogenous MLKL in MDF (DC50 cell-based assay)
Procedure, shortened: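 MDF (seeded the day before) or U937 cells were treated 24 h at 37 °C, 10% CO2 with compound at 10, 2, 0.4, 0.08 and 0.016 μM final. Endogenous MLKL was quantified by western blot (anti-MLKL 3H1), normalized to GAPDH. Percent degradation was taken relative to DMSO control.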

[1] = test system: Immortalised Mouse Dermal Fibroblasts (MDFs); test: Cellular assay: inhibition of TSI induced necroptosis, CellTitre-Glo viability; settings: Mus musculus, Fibroblast; MDF, 3 hours TSI cocktail, Table 27; read-out: Inhibition of TSI-induced necroptosis (IC50 cell-based assay) in MDF
Procedure, shortened: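 Immortalised mouse dermal fibroblasts (2200 cells/well) pretreated 30 min with compound, 10-point 1:3 series from 36 μM, 0.3% DMSO. Then 3 h at 37° C. with TNF (100 ng/ml), Smac mimetic (500 nM) and IDN-6556 (10 μM). CellTiter-Glo luminescence normalised to DMSO (100%) and DMSO+TSI (0%); IC50 from 4-parameter logistic fit.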

human MLKL (full length) = human MLKL (full length) (Homo sapiens (Human), UniProt Q8NB16); test: KINOMEscan binding assay, human MLKL (full length); settings: hMLKL, Table 25; read-out: MLKL (KD)
Sequence of human MLKL (full length) (Q8NB16 whole entry): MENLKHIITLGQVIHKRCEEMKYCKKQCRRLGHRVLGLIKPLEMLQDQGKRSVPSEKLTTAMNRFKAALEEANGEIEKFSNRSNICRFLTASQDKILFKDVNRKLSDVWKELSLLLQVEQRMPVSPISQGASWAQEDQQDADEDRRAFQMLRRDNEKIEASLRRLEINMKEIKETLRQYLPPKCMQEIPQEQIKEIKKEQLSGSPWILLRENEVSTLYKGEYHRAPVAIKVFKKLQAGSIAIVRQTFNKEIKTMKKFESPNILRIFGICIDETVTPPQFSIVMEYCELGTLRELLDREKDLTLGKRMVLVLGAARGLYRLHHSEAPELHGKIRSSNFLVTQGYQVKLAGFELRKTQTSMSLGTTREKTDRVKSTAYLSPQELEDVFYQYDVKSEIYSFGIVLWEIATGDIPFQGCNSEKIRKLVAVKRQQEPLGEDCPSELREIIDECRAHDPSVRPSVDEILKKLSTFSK
Procedure, shortened: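 Compound dilutions (11 points, 3-fold, mostly from 30,000 nM, 1% DMSO final) competed with immobilized ligand for DNA- or phage-tagged protein, and bead-bound protein was measured by qPCR. Kd values came from Hill-equation fits with slope −1 (Levenberg-Marquardt).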

endogenous MLKL in U937 = endogenous MLKL in U937 (Homo sapiens (Human), UniProt Q8NB16); test: Degradation assay: endogenous MLKL in U937 (western blot); settings: U937, 24 h incubation, read-out: Degradation of endogenous MLKL in U937 (DC50 cell-based assay)
Sequence of endogenous MLKL in U937 (Q8NB16 whole entry): as above
Description: Degradation Assay: Screening Compounds Procedure to Evaluate the Activity of Compounds in Degrading Endogenous MLKL in Human and Mouse Cell
The mouse dermal fibroblast (MDF) cell line was seeded the day before the experiment in a 24-well plate at a cell density of […] per well in a volume of 0.5 mL per well and left to attach overnight. The human monocyte cell line (U937) was seeded on the day of the experiment in a 24-well plate at a cell density of […] per well in a volume of 0.5 mL per well.
The compound was diluted in DMSO with a starting concentration of 10 mM and titrated stepwise with a dilution of 1:5. 0.5 μL of the compound dilution was added to the appropriate well to achieve a final concentration of 10; 2; 0.4; 0.08 and 0.016 μM. A DMSO only well was included as control.
The cells were incubated for 24 h in the presence of the compound at 37° C. and 10% CO2.
After the 24 h incubation period, the medium was removed and cells washed with 0.5 mL PBS. The cells were then lysed directly in 60 μL of 1×SDS gel loading buffer.
The cell lysate was heat-denatured at […] for 10 min. 10 μL of lysate per well were run on 18-well 4-15% Criterion TGX stain free gels (BIO-RAD). The proteins were then transferred onto nitrocellulose membrane with a wet transfer protocol in the Criterion Blotter (BIO-RAD).
Membranes were blocked with 5% skim milk in TBST. Primary antibody against MLKL (clone 3H1, MABC604 Merck) was used at 1:2000 dilution in TBST with 1% BSA and left shaking over night at 4° C. After washes with TBST, the membranes were incubated with goat anti-rat IgG HRP-conjugated antibody (Southern Biotech) in 1% skim milk TBST at 1:10000 dilution for 1 h at room temperature. After TBST washes the bands were imaged on the ChemiDoc MP Imaging System (BIO-RAD) with Immobilion Western Chemiluminescent HRP Substrate Forte (Millipore). The loading control GAPDH was probed for with rabbit anti-GAPDH (CST 14C10) at 1:2000 dilution in 1% BSA TBST over night at 4° C. TBST washes were followed by incubation with goat anti-rabbit IgG HRP-conjugated antibody (Southern Biotech) in 1% skim milk TBST at 1:10000 dilution for 1 h at room temperature followed by TBST washes. The signal was detected as described above.
The band intensity was measured in the ImageLab Software (BIO-RAD) and the MLKL values adjusted for loading with GAPDH. The percentage of degradation was calculated by normalizing the compound treated values to the DMSO only control.

Sequence of endogenous MLKL in MDF (Q9D2Y4 whole entry): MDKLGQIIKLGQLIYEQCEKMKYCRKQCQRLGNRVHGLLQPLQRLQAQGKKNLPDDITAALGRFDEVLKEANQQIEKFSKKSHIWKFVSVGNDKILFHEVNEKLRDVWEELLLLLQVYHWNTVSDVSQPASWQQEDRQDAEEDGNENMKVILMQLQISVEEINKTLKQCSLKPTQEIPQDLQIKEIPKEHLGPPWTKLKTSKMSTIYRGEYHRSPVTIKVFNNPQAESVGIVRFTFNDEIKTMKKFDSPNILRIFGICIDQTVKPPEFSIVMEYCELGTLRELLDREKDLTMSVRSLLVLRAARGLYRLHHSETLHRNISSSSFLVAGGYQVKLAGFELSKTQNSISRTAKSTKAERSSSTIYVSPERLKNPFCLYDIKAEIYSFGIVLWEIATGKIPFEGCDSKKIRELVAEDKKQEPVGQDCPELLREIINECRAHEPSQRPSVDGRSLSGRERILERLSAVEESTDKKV

Row | Structure (SMILES) | DC50 (endogenous MLKL in MDF) [nM] | IC50 [1] [nM] | Kd (human MLKL (full length)) [nM] | DC50 (endogenous MLKL in U937) [nM]
1 | C[C@H](Oc1cc(-c2nn(C)c3c(-c4cnn(C5CCN(C(=O)[C@H]6C[C@H]6C6CCN(c7cccc8c7C(=O)N(C7CCC(=O)NC7=O)C8=O)CC6)CC5)c4)cnc(N)c23)ccc1NS(=O)(=O)C(F)F)c1ccc(F)cc1 (stereo in doubt) [Compound 1129, N-[4-(4-amino-7-{1-[1-(2-{1-[2-(2,6-dioxopiperidin-3-yl)-1,3-dioxo-2,3-dihydro-1H-isoindol-4-yl]piperidin-4-yl}-(cis)-cyclopropanecarbonyl)piperidin-4-yl]-1H-pyrazol-4-yl}-1-methyl-1H-pyrazolo[4,3-c]pyridin-3-yl)-2-[(1S)-1-(4-fluorophenyl)ethoxy]phenyl]-1,1-difluoromethane-sulfonamide] | < 1000 | < 1000 | 10 to 1000 | < 1000
2 | C[C@H](Oc1cc(-c2nn(C)c3c(-c4cnn(C5CCN(C(=O)[C@H]6C[C@@H]6C6CCN(c7cccc8c7C(=O)N(C7CCC(=O)NC7=O)C8=O)CC6)CC5)c4)cnc(N)c23)ccc1NS(=O)(=O)C(F)F)c1ccc(F)cc1 (stereo in doubt) [Compound 1130, N-[4-(4-amino-7-{1-[1-(2-{1-[2-(2,6-dioxopiperidin-3-yl)-1,3-dioxo-2,3-dihydro-1H-isoindol-4-yl]piperidin-4-yl}-(trans)-cyclopropanecarbonyl)piperidin-4-yl]-1H-pyrazol-4-yl}-1-methyl-1H-pyrazolo[4,3-c]pyridin-3-yl)-2-[(1S)-1-(4-fluorophenyl)ethoxy]phenyl]-1,1-difluoromethane-sulfonamide] | < 1000 | < 1000 | 10 to 1000 | < 1000
3 | Cc1ncsc1-c1ccc(CNC(=O)[C@@H]2C[C@@H](O)CN2C(=O)[C@@H](NC(=O)CCCCCOc2ccc(-c3cnc(N)c4c(-c5ccc(NS(=O)(=O)C(F)F)c(O[C@@H](C)c6ccc(F)cc6)c5)nn(C)c34)cc2)C(C)(C)C)cc1 [Compound 1042, (2S,4R)-1-[(2S)-2-[6-(4-{4-amino-3-[4-(difluoromethanesulfonamido)-3-[(1S)-1-(4-fluorophenyl)ethoxy]phenyl]-1-methyl-1H-pyrazolo[4,3-c]pyridin-7-yl}phenoxy)hexanamido]-3,3-dimethylbutanoyl]-4-hydroxy-N-{[4-(4-methyl-1,3-thiazol-5-yl)phenyl]methyl}pyrrolidine-2-carboxamide] | < 1000 | 1000 to 10000 | 10 to 1000 | < 1000
4 | C[C@H](Oc1cc(-c2nn(C)c3c(-c4cnn(C5CCN(C(=O)C6CCN(c7cccc8c7C(=O)N(C7CCC(=O)NC7=O)C8=O)CC6)CC5)c4)cnc(N)c23)ccc1NS(=O)(=O)C(F)F)c1ccc(F)cc1 (stereo partly drawn) [Compound 1044, N-(4-{4-amino-7-[1-(1-{1-[2-(2,6-dioxopiperidin-3-yl)-1,3-dioxo-2,3-dihydro-1H-isoindol-4-yl]piperidine-4-carbonyl}piperidin-4-yl)-1H-pyrazol-4-yl]-1-methyl-1H-pyrazolo [4,3-c]pyridin-3-yl}-2-[(1S)-1-(4-fluorophenyl)ethoxy]phenyl)-1,1-difluoromethanesulfonamide] | < 1000 | < 1000 | < 10 | < 1000
5 | C[C@H](Oc1cc(-c2nn(C)c3c(-c4cnn(C5CCN(C(=O)[C@H]6C[C@H](Nc7cccc8c7C(=O)N(C7CCC(=O)NC7=O)C8=O)C6)CC5)c4)cnc(N)c23)ccc1NS(=O)(=O)C(F)F)c1ccc(F)cc1 (stereo partly drawn) [Compound 1047, N-{4-[4-amino-1-methyl-7-(1-{1-[(trans)-3-{[2-(2,6-dioxopiperidin-3-yl)-1,3-dioxo-2,3-dihydro-1H-isoindol-4-yl]amino}cyclobutanecarbonyl]piperidin-4-yl}-1H-pyrazol-4-yl)-1H-pyrazolo[4,3-c]pyridin-3-yl]-2-[(1 S)-1-(4-fluorophenyl)ethoxy]phenyl}-1,1-difluoromethanesulfonamide] | < 1000 | < 1000 | < 10 | < 1000
6 | C[C@H](Oc1cc(-c2nn(C)c3c(-c4cnn(C5CCN(C(=O)CC6CCN(c7cccc8c7C(=O)N(C7CCC(=O)NC7=O)C8=O)CC6)CC5)c4)cnc(N)c23)ccc1NS(=O)(=O)C(F)F)c1ccc(F)cc1 (stereo partly drawn) [Compound 1048, N-[4-(4-amino-7-{1-[1-(2-{1-[2-(2,6-dioxopiperidin-3-yl)-1,3-dioxo-2,3-dihydro-1H-isoindol-4-yl]piperidin-4-yl}acetyl)piperidin-4-yl]-1H-pyrazol-4-yl}-1-methyl-1H-pyrazolo[4,3-c]pyridin-3-yl)-2-[(1S)-1-(4-fluorophenyl)ethoxy]phenyl]-1,1-difluoromethanesulfonamide] | < 1000 | < 1000 | < 10 | 1000 to 10000
7 | C[C@H](Oc1cc(-c2nn(C)c3c(-c4cnn(C5CCN(C(=O)C6CN(c7cccc8c7C(=O)N(C7CCC(=O)NC7=O)C8=O)C6)CC5)c4)cnc(N)c23)ccc1NS(=O)(=O)C(F)F)c1ccc(F)cc1 (stereo partly drawn) [Compound 1051, N-(4-{4-amino-7-[1-(1-{1-[2-(2,6-dioxopiperidin-3-yl)-1,3-dioxo-2,3-dihydro-1H-isoindol-4-yl]azetidine-3-carbonyl}piperidin-4-yl)-1H-pyrazol-4-yl]-1-methyl-1H-pyrazolo[4,3-c]pyridin-3-yl}-2-[(1S)-1-(4-fluorophenyl)ethoxy]phenyl)-1,1-difluoromethane-sulfonamide] | < 1000 | 1000 to 10000 | 10 to 1000 | 1000 to 10000
8 | C[C@H](Oc1cc(-c2nn(C)c3c(-c4cnn(C5CCN(C(=O)C6CCN(c7cccc8c7C(=O)N(C7CCC(=O)NC7=O)C8=O)C6)CC5)c4)cnc(N)c23)ccc1NS(=O)(=O)C(F)F)c1ccc(F)cc1 (stereo partly drawn) [Compound 1054, N-(4-{4-amino-7-[1-(1-{1-[2-(2,6-dioxopiperidin-3-yl)-1,3-dioxo-2,3-dihydro-1H-isoindol-4-yl]pyrrolidine-3-carbonyl}piperidin-4-yl)-1H-pyrazol-4-yl]-1-methyl-1H-pyrazolo [4,3-c]pyridin-3-yl}-2-[(1S)-1-(4-fluorophenyl)ethoxy]phenyl)-1,1-difluoromethanesulfonamide] | < 1000 | < 1000 | 10 to 1000 | < 1000
9 | Cc1ncsc1-c1ccc(CNC(=O)[C@@H]2C[C@@H](O)CN2C(=O)[C@@H](NC(=O)C2(F)CC2)C(C)(C)C)c(OCCCCCCn2cc(-c3cnc(N)c4c(-c5ccc(NS(=O)(=O)C(F)F)c(O[C@@H](C)c6ccc(F)cc6)c5)nn(C)c34)cn2)c1 [Compound 1057, (2S,4R)-N-[(2-{[6-(4-{4-amino-3-[4-(difluoromethanesulfonamido)-3-[(1S)-1-(4-fluorophenyl)ethoxy]phenyl]-1-methyl-1H-pyrazolo[4,3-c]pyridin-7-yl}-1H-pyrazol-1-yl)hexyl]oxy}-4-(4-methyl-1,3-thiazol-5-yl)phenyl)methyl]-1-[(2S)-2-[(1-fluorocyclopropyl)formamido]-3,3-dimethylbutanoyl]-4-hydroxypyrrolidine-2-carboxamide] | 1000 to 10000 | 1000 to 10000 | 10 to 1000 | < 1000
